According to patent US20220087969A1, “METHOD FOR TREATING ASTHMA” (Olatec Therapeutics LLC, priority 2019, published 2022):

Legend:
[1] = test system: OVA-induced allergic airway inflammation; test: Leukocyte subpopulations in bronchoalveolar lavage fluid, OVA allergic asthma model, i.p. dapansutrile; type: in vivo, C57BL/6j mice; conditions: Day 29
From the text: A well-established mouse model of experimental allergic asthma (Sel 2008, Wegmann 2005, Wegmann 2007, Lunding 2015a) was used to evaluate dapansutrile as a therapeutic option in allergic bronchial asthma and to determine if dapansutrile would have an impact on airway inflammation and the development of airway hyperresponsiveness (AHR) Inflammation in this model is characterized by the infiltration of eosinophils as well as of TH2 cells and involves the subsequent development of AHR and mucus hyperproduction so that this model resembles the major pathophysiologic hallmarks of human bronchial asthma.
C57BL/6j mice were sensitized to OVA (ovalbumin) by three intraperitoneal (i.p.) injections of 10 μg OVA adsorbed to 150 mg aluminum hydroxide on days 1, 14, and 21. This sensitization results in an adoptive immune response against OVA with OVA-specific TH2 cells and the production of OVA-specific antibodies of the subclasses IgE and IgG4.
To induce acute allergic airway inflammation, mice were exposed three times to an OVA aerosol (1% w/v in PBS) on days 26, 27, and 28.
Healthy control animals (healthy group) were sham sensitized to PBS and subsequently challenged with PBS aerosol. Non-drug treated animals (asthmatic group) and drug-treated animals (treated group) were sensitized by […] and subsequently challenged with OVA aerosol. The treatment group were treated with dapansutrile at 60 mg/kg at days 25, 26, 27, and 28 by intraperitoneal (i.p). injection, whereas the healthy group and the asthmatic group were administered with saline by intraperitoneal injection on days 25, 26, 27, and 28.
Eight animals per group were used. All animals were sacrificed on day 29. The following readouts were measured according to Lunding, 2015b. • General infiltration of inflammatory cells into the broncheoalveolar lumen • Determination of the specific infiltration of eosinophils, neutrophils and lymphocytes by histologic differentiation of the bronchoalveolar lavage (BAL) cells. • Goblet cell hyperplasia by CAST system (Computer Assisted Stereological Toolbox), including making microscopic pictures of the airways. • Airway resistance in response to methacholine to determine the airway hyperresponsiveness.
Specifically, inflammatory cell subpopulations (eosinophils, macrophages, neutrophils, lymphocytes) infiltrating the bronchoalveolar lumen were quantified using cyto-spinned and quick-diff-stained cells from bronchoalveolar lavage fluids (BALF). Further, inflammatory cell infiltration was recorded from hematoxylin and eosin (HE)-stained lung/airway cross-sections. AHR was assessed by recording airway resistance during a methacholine (MCh) provocation test in mice mechanically ventilated by a Buxco FinePoint RC unit. Mucus hyperproduction was quantified in PAS (periodic acid-Schiff)-stained airway cross-sections undergoing systematic, uniform random sampling and subsequent stereologic analysis of mucus amount in the airways and mucus producing goblet cells in the airway mucosa.
Allergic airway inflammation and mucus hyperproduction were assessed on Day 29, 24 hours after the final OVA aerosol challenge and dapansutrile dose.

[2] = test system: OVA-induced allergic airway inflammation; test: Airway resistance in response to MCh, OVA model, oral dapansutrile in food; type: in vivo, mice; conditions: 100 mg/mL MCh
Description: The experimental protocols of the mouse model were the same as those described in Example 1, except dapansutrile was administered orally by food. The already-sensitized mice were fed ad libidum with food pellets containing 7.5 g/kg dapansutrile starting on day 22 for one week; the first aerosol challenge was on day 26. Mice typically consume about 4 g of food per day, resulting in an approximate daily dose of 0 mg/kg/day for control groups and 1,000 mg/kg/day for the treatment groups. […] OVA-sensitized, OVA-challenged asthmatic controls (asthmatic) were fed with control food pellets without dapansutrile. […] Baseline airway resistance of healthy animals was 2.58 cm H2O·s/mL at 100 mg/mL MCh.

[3] = test system: OVA-induced allergic airway inflammation; test: Goblet cells covering airway mucosa (PAS sections, stereology), OVA model, i.p. dapansutrile; type: in vivo, C57BL/6j mice; conditions: treated mice, 60 mg/kg i.p.; asthmatic 22.74%; p<0.01
Description: C57BL/6j mice were sensitized to OVA (ovalbumin) by three intraperitoneal (i.p.) injections of 10 μg OVA adsorbed to 150 mg aluminum hydroxide on days 1, 14, and 21. This sensitization results in an adoptive immune response against OVA with OVA-specific TH2 cells and the production of OVA-specific antibodies of the subclasses IgE and […]. To induce acute allergic airway inflammation, mice were exposed three times to an OVA aerosol (1% w/v in PBS) on days 26, 27, and 28. Healthy control animals (healthy group) were sham sensitized to PBS and subsequently challenged with PBS aerosol. […] The following readouts were measured according to Lunding, 2015b. • General infiltration of inflammatory cells into the broncheoalveolar lumen • Determination of the specific infiltration of eosinophils, neutrophils and lymphocytes by histologic differentiation of the bronchoalveolar lavage (BAL) cells. • Goblet cell hyperplasia by CAST system (Computer Assisted Stereological Toolbox), including making microscopic pictures of the airways. • Airway resistance in response to methacholine to determine the airway hyperresponsiveness. Specifically, inflammatory cell subpopulations (eosinophils, macrophages, neutrophils, lymphocytes) infiltrating the bronchoalveolar lumen were quantified using cyto-spinned and quick-diff-stained cells from bronchoalveolar lavage fluids (BALF). […]

[4] = test system: OVA-induced allergic airway inflammation; test: Leukocyte subpopulations in BALF, OVA model, oral dapansutrile in food; type: in vivo, mice
Description: The experimental protocols of the mouse model were the same as those described in Example 1, except dapansutrile was administered orally by food. The already-sensitized mice were fed ad libidum with food pellets containing 7.5 g/kg dapansutrile starting on day 22 for one week; the first aerosol challenge was on day 26. Mice typically consume about 4 g of food per day, resulting in an approximate daily dose of 0 mg/kg/day for control groups and 1,000 mg/kg/day for the treatment groups. […] OVA-sensitized, OVA-challenged asthmatic controls (asthmatic) were fed with control food pellets without dapansutrile.

[5] = oral, 7.5 g/kg in food, vs asthmatic mice, p<0.05

With `CS(=O)(=O)CCC#N` [dapansutrile, 3-methanesulfonylpropionitrile] the “reduction in lymphocytes in BALF” value ([1]; 60 mg/kg i.p. days 25-28, vs asthmatic mice) was 32%, the “reduction in eosinophils in BALF” value ([1]; 60 mg/kg i.p. days 25-28, vs asthmatic mice, p<0.0001) was “approximately 60%” and the “reduction in neutrophils in BALF” value ([1]; 60 mg/kg i.p. days 25-28, vs asthmatic mice, p<0.01) was 70%. For the same compound, the “macrophage numbers in BALF” value ([1]; 60 mg/kg i.p., vs asthmatic mice) was “no significant reduction”, the “eosinophils in BALF” value ([1]; treated mice, 60 mg/kg i.p. days 25-28, asthmatic 21.96×10^4) was 7.30×10^4 cells/ml and the “lymphocytes in BALF” value ([1]; treated mice, 60 mg/kg i.p., asthmatic 0.80×10^4) was 0.55×10^4 cells/ml. The “neutrophils in BALF” value ([1]; treated mice, 60 mg/kg i.p., asthmatic 2.41×10^4) was 0.70×10^4 cells/ml, the “reduction of airway resistance in response to MCh” value ([2]; oral, 7.5 g/kg in food, vs sham-treated asthmatic controls, p<0.01) was “approximately 60%” and the “airway resistance in response to MCh” value ([2]; treated mice, oral 7.5 g/kg in food, asthmatic 4.57, healthy 2.58) was 3.38 cm H2O·s/mL. For the same compound, the “area of epithelial basal membrane covered by goblet cells” value [3] was 17.67%, the “reduction in eosinophils in BALF” value ([4]; oral, 7.5 g/kg in food from day 22 for one week, vs asthmatic mice, p<0.0001) was roughly 75% and the “macrophage numbers in BALF” value ([4]; oral, 7.5 g/kg in food, vs asthmatic mice) was “no significant reduction”. The “reduction in lymphocytes in BALF” value [4, 5] was roughly 75%, the “reduction in neutrophils in BALF” value [4, 5] was roughly 75% and the “lymphocytes in BALF” value ([4]; treated mice, oral 7.5 g/kg in food, asthmatic 1.00×10^4) was 0.26×10^4 cells/ml. The “neutrophils in BALF” value ([4]; treated mice, oral 7.5 g/kg in food, asthmatic 1.74×10^4) was 0.43×10^4 cells/ml and the “eosinophils in BALF” value ([4]; treated mice, oral 7.5 g/kg in food, asthmatic 15.93×10^4) was 3.77×10^4 cells/ml.
